Target: T1, Cucumis sativus (cucumber) lipid body lipoxygenase (cslbLOX, 13-LOX), wild type, X92890, FIG. 5 (Cucumis sativus, UniProt Q42710)
T1 sequence (Q42710 1-878): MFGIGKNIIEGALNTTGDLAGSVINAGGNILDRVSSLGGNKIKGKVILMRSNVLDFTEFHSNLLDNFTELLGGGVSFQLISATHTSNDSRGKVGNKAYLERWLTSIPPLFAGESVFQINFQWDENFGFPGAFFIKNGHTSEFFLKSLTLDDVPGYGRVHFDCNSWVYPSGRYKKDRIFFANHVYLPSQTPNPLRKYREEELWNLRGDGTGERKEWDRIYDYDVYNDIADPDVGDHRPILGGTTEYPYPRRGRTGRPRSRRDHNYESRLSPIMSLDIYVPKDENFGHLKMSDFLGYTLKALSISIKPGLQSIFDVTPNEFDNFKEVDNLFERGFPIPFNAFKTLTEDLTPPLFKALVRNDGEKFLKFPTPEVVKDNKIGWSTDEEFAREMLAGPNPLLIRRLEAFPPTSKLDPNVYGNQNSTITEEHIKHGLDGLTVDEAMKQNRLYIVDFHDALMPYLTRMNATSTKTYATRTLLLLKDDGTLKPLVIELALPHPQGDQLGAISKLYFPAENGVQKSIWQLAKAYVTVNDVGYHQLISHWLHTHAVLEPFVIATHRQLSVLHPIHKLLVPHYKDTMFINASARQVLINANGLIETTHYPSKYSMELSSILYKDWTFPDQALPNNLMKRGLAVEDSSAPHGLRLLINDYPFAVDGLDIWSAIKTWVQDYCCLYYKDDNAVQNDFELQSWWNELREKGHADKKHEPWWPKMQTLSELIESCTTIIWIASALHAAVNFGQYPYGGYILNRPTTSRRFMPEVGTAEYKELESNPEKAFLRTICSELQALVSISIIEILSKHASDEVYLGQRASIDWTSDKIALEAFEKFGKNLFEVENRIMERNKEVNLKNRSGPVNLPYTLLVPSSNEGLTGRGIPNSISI
Assay: Kinetic characterization of wild-type LOX (13-LOX) with LA
Assay type: biochemical
Conditions: 23 points measured between 100 μM and 250 μM LA
Description: For the bacterial expression of wild-type LOX and for directed mutagenesis the plasmid pQE-30 (Qiagen, Hilden, Germany), which contained the cDNA of the LOX from lipid bodies of cucumber cotyledons as an insert (LOXpQE 30: cf. Feussner, I., Bachmann, A., Höhne, M. & Kindl, H. (1998) FEBS Lett. 431, 433-436) was used. The mutagenesis was carried out with the aid of the QuikChange Mutagenesis Kit from Stratagene (Heidelberg, Germany). Oligonucleotides with the appropriate base exchanges were obtained from MWG-Biotech (Ebersberg, Germany). For the analysis of the mutations further conservative base exchange was initiated in order to create new restriction division sites or to delete existing ones. In addition all the mutations were sequenced and at least three different bacterial clones expressed and used for the investigation of enzymatic properties. The expression of LOXpQE-30 and all the mutations was carried out according to Feussner, I., Bachmann, A., Höhne, M. & Kindl, H. (1998) FEBS Left. 431, 433-436. Cells from 1-liter cultures were resuspended in 5 to 7 ml lysis buffer and with the aid of an ultrasound needle broken up with pulses each of 30 seconds, and the cell debris made into pellets. The affinity purification of the polyHis-extended LOX was carried out as previously described (cf. Feussner, I., Bachmann, A., Höhne, M. & Kindl, H. (1998) FEBS Lett. 431, 433436).

## CCCCC/C=C\C/C=C\CCCCCCCC(=O)O [LA, linoleic acid]
  Km: 115 µM
  LA turnover at Vmax condition (substrate saturation): 12 s⁻¹

Source: patent US6875847B1, “Linoleate and linolenate-lipoxygenase mutants” (Institut fur Pflanzenbiochemie IPE, priority 1999, dated 2005)
